Experimental data: BindingDB's records for doi:10.1021/jm00348a025 (1982)

Legend:
[1] = target: Alkaline phosphatase, tissue-nonspecific isozyme (Homo sapiens) (UniProt P05186); assay: Concentration required for 50% inhibition of human leukocyte alkaline phosphatase in the presence of 10 mM p-nitrophenyl phosphate as substrate
[2] = target: Alkaline phosphatase, tissue-nonspecific isozyme (Homo sapiens) (UniProt P05186); assay: as above; remark: listed apart in the source

Sequence of Alkaline phosphatase, tissue-nonspecific isozyme (Homo sapiens) (P05186 whole entry, looked up): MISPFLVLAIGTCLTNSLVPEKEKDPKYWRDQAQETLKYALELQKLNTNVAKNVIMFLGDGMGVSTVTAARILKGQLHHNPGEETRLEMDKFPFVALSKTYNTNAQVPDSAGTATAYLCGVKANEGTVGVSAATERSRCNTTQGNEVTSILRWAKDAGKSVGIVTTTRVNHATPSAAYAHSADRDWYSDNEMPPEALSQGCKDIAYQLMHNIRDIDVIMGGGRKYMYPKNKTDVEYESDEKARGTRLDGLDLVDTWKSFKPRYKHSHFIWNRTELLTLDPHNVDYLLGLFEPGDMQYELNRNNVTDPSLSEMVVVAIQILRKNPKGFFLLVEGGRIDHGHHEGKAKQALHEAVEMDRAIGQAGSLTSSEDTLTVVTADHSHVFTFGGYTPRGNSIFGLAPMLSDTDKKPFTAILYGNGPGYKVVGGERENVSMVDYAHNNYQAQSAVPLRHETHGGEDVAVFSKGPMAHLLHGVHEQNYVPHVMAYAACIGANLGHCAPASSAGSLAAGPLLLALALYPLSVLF

IC50 [1] [µM] | IC50 [2] [µM] | SMILES
970 |  | CCCCc1cc2c(O)cc(C(=O)O)nc2c2c(O)cc(C(=O)O)nc12
 | 340 | O=C(O)c1ccc2nc3ccc(O)cc3c(=O)n2c1
 | 1750 | CCCOc1ccccc1-c1nc2nn[nH]c2c(=O)[nH]1 [5-(2-propoxyphenyl)-2H,3H,7H-[1,2,3]triazolo[4,5-d]pyrimidin-7-one]
9680 |  | O=C(O)c1cc(=O)c2c(OCC(O)COc3cccc4oc(C(=O)O)cc(=O)c34)cccc2o1 [Crolom]
